Results published in the NIST ThermoML archive (doi:10.1021/acs.jced.8b00132).
Several values for one entry are separate records, joined by “and”; a condition that tells them apart may be missing. Identical values can stand only once.

Conditions: Gas

O=C(C(F)(F)C(F)(F)F)C(F)(C(F)(F)F)C(F)(F)F [dodecafluoro-2-methylpentan-3-one]
Conditions | thermal conductivity
473.39 K, 1887 kPa, transient hot wire | 0.02688 W/m/K
473.39 K, 22521 kPa, transient hot wire | 0.05152 W/m/K
473.39 K, 49215 kPa, transient hot wire | 0.06271 W/m/K
473.39 K, 49255 kPa, transient hot wire | 0.06285 W/m/K
473.4 K, 22522 kPa, transient hot wire | 0.05154 W/m/K
473.4 K, 33946 kPa, transient hot wire | 0.05711 W/m/K
473.42 K, 7819 kPa, transient hot wire | 0.04151 W/m/K
473.44 K, 47 kPa, hot wire | 0.02441 W/m/K
473.44 K, 201 kPa, hot wire | 0.0244 W/m/K
473.44 K, 7822 kPa, transient hot wire | 0.0416 W/m/K
473.44 K, 49246 kPa, transient hot wire | 0.06304 W/m/K
473.45 K, 47 kPa, hot wire | 0.02432 W/m/K
473.45 K, 606 kPa, hot wire | 0.02611 W/m/K
473.45 K, 49207 kPa, transient hot wire | 0.06277 W/m/K
473.45 K, 49209 kPa, transient hot wire | 0.06279 W/m/K
473.45 K, 49249 kPa, transient hot wire | 0.06286 W/m/K
473.46 K, 202 kPa, hot wire | 0.02416 W/m/K
473.46 K, 606 kPa, hot wire | 0.02602 W/m/K
473.46 K, 1913 kPa, transient hot wire | 0.0269 W/m/K
473.46 K, 10825 kPa, transient hot wire | 0.04418 W/m/K
473.46 K, 10827 kPa, transient hot wire | 0.04414 W/m/K
473.47 K, 33946 kPa, transient hot wire | 0.05693 W/m/K
473.48 K, 419 kPa, hot wire | 0.02531 W/m/K
473.48 K, 1914 kPa, transient hot wire | 0.027 W/m/K
473.48 K, 22521 kPa, transient hot wire | 0.05152 W/m/K
473.48 K, 33946 kPa, transient hot wire | 0.05688 W/m/K
473.49 K, 418 kPa, hot wire | 0.02526 W/m/K
473.49 K, 1887 kPa, transient hot wire | 0.027 W/m/K
473.49 K, 15492 kPa, transient hot wire | 0.04746 W/m/K
473.49 K, 49134 kPa, transient hot wire | 0.06279 W/m/K
473.5 K, 1887 kPa, transient hot wire | 0.02709 W/m/K
473.51 K, 1475 kPa, transient hot wire | 0.02577 W/m/K
473.51 K, 49242 kPa, transient hot wire | 0.0628 W/m/K
473.52 K, 1475 kPa, transient hot wire | 0.02566 W/m/K
473.52 K, 7821 kPa, transient hot wire | 0.04156 W/m/K
473.52 K, 7822 kPa, transient hot wire | 0.04146 W/m/K
473.53 K, 10824 kPa, transient hot wire | 0.04374 W/m/K
473.53 K, 49248 kPa, transient hot wire | 0.06293 W/m/K
473.54 K, 46 kPa, hot wire | 0.0245 W/m/K
473.54 K, 201 kPa, hot wire | 0.02457 W/m/K
473.55 K, 201 kPa, hot wire | 0.02434 W/m/K
473.55 K, 839 kPa, transient hot wire | 0.02508 W/m/K
473.55 K, 10823 kPa, transient hot wire | 0.0442 W/m/K
473.55 K, 22519 kPa, transient hot wire | 0.05152 W/m/K
473.55 K, 33944 kPa, transient hot wire | 0.05699 W/m/K
473.55 K, 33949 kPa, transient hot wire | 0.05683 W/m/K
473.56 K, 46 kPa, hot wire | 0.02434 W/m/K
473.56 K, 22522 kPa, transient hot wire | 0.05162 W/m/K
473.57 K, 840 kPa, transient hot wire | 0.02498 W/m/K
473.58 K, 1912 kPa, transient hot wire | 0.02703 W/m/K and 0.02697 W/m/K
473.58 K, 15493 kPa, transient hot wire | 0.04744 W/m/K
473.6 K, 604 kPa, transient hot wire | 0.02513 W/m/K
473.6 K, 15489 kPa, transient hot wire | 0.04749 W/m/K
473.61 K, 605 kPa, transient hot wire | 0.02525 W/m/K
473.62 K, 33950 kPa, transient hot wire | 0.05685 W/m/K
473.63 K, 10824 kPa, transient hot wire | 0.04429 W/m/K
473.64 K, 10823 kPa, transient hot wire | 0.04414 W/m/K
473.65 K, 1476 kPa, transient hot wire | 0.02571 W/m/K
473.66 K, 1476 kPa, transient hot wire | 0.02567 W/m/K
473.67 K, 429 kPa, transient hot wire | 0.02546 W/m/K
473.67 K, 15488 kPa, transient hot wire | 0.04746 W/m/K
473.67 K, 22520 kPa, transient hot wire | 0.05153 W/m/K
473.68 K, 430 kPa, transient hot wire | 0.02555 W/m/K
473.71 K, 842 kPa, transient hot wire | 0.02515 W/m/K
473.71 K, 1912 kPa, transient hot wire | 0.02721 W/m/K
473.71 K, 1913 kPa, transient hot wire | 0.02727 W/m/K
473.71 K, 10824 kPa, transient hot wire | 0.04392 W/m/K
473.72 K, 841 kPa, transient hot wire | 0.02507 W/m/K
473.74 K, 10822 kPa, transient hot wire | 0.04424 W/m/K
473.75 K, 22523 kPa, transient hot wire | 0.05151 W/m/K and 0.05152 W/m/K
473.77 K, 607 kPa, transient hot wire | 0.02516 W/m/K and 0.02531 W/m/K
473.77 K, 15488 kPa, transient hot wire | 0.04755 W/m/K
473.78 K, 1476 kPa, transient hot wire | 0.02572 W/m/K
473.78 K, 15486 kPa, transient hot wire | 0.04744 W/m/K
473.79 K, 1476 kPa, transient hot wire | 0.02574 W/m/K
473.81 K, 1914 kPa, transient hot wire | 0.02747 W/m/K
473.81 K, 10823 kPa, transient hot wire | 0.0442 W/m/K and 0.04427 W/m/K
473.82 K, 427 kPa, transient hot wire | 0.02562 W/m/K
473.82 K, 428 kPa, transient hot wire | 0.02569 W/m/K
473.82 K, 1914 kPa, transient hot wire | 0.0274 W/m/K
473.85 K, 15487 kPa, transient hot wire | 0.04761 W/m/K
473.87 K, 15485 kPa, transient hot wire | 0.04754 W/m/K
473.88 K, 841 kPa, transient hot wire | 0.02504 W/m/K
473.89 K, 841 kPa, transient hot wire | 0.02504 W/m/K
473.94 K, 607 kPa, transient hot wire | 0.02517 W/m/K
473.94 K, 608 kPa, transient hot wire | 0.02532 W/m/K
473.94 K, 1476 kPa, transient hot wire | 0.02574 W/m/K
473.96 K, 1476 kPa, transient hot wire | 0.02582 W/m/K
473.98 K, 426 kPa, transient hot wire | 0.02562 W/m/K
473.99 K, 423 kPa, transient hot wire | 0.02558 W/m/K
474.04 K, 842 kPa, transient hot wire | 0.02513 W/m/K and 0.02512 W/m/K
474.09 K, 607 kPa, transient hot wire | 0.02539 W/m/K and 0.02526 W/m/K
474.16 K, 420 kPa, transient hot wire | 0.02565 W/m/K
474.16 K, 421 kPa, transient hot wire | 0.02567 W/m/K
474.19 K, 842 kPa, transient hot wire | 0.02519 W/m/K
474.2 K, 841 kPa, transient hot wire | 0.0252 W/m/K
474.27 K, 606 kPa, transient hot wire | 0.02536 W/m/K
474.28 K, 606 kPa, transient hot wire | 0.02535 W/m/K
474.31 K, 419 kPa, transient hot wire | 0.02566 W/m/K
474.32 K, 419 kPa, transient hot wire | 0.0257 W/m/K
499.37 K, 646 kPa, hot wire | 0.02778 W/m/K
499.37 K, 647 kPa, hot wire | 0.02768 W/m/K
499.4 K, 421 kPa, hot wire | 0.02708 W/m/K
499.41 K, 221 kPa, hot wire | 0.02654 W/m/K
499.41 K, 422 kPa, hot wire | 0.0269 W/m/K
499.42 K, 220 kPa, hot wire | 0.02629 W/m/K
499.45 K, 60 kPa, hot wire | 0.02624 W/m/K
499.45 K, 645 kPa, hot wire | 0.02749 W/m/K and 0.02782 W/m/K
499.47 K, 60 kPa, hot wire | 0.02576 W/m/K
499.49 K, 419 kPa, hot wire | 0.0267 W/m/K
499.5 K, 419 kPa, hot wire | 0.02667 W/m/K
499.5 K, 50295 kPa, transient hot wire | 0.06261 W/m/K
499.51 K, 219 kPa, hot wire | 0.02641 W/m/K
499.51 K, 220 kPa, hot wire | 0.02635 W/m/K
499.52 K, 4853 kPa, transient hot wire | 0.03589 W/m/K and 0.03595 W/m/K
499.52 K, 50304 kPa, transient hot wire | 0.06215 W/m/K
499.53 K, 644 kPa, hot wire | 0.02758 W/m/K
499.53 K, 2128 kPa, transient hot wire | 0.02828 W/m/K
499.54 K, 61 kPa, hot wire | 0.02593 W/m/K
499.55 K, 61 kPa, hot wire | 0.02598 W/m/K
499.55 K, 644 kPa, hot wire | 0.02734 W/m/K
499.56 K, 419 kPa, hot wire | 0.02715 W/m/K
499.56 K, 50302 kPa, transient hot wire | 0.06239 W/m/K
499.57 K, 419 kPa, hot wire | 0.02691 W/m/K
499.57 K, 4325 kPa, transient hot wire | 0.0351 W/m/K
499.57 K, 50305 kPa, transient hot wire | 0.06236 W/m/K
499.58 K, 3937 kPa, transient hot wire | 0.03408 W/m/K
499.58 K, 4853 kPa, transient hot wire | 0.03611 W/m/K
499.59 K, 50256 kPa, transient hot wire | 0.06271 W/m/K
499.59 K, 50258 kPa, transient hot wire | 0.06238 W/m/K
499.6 K, 218 kPa, hot wire | 0.02625 W/m/K
499.6 K, 219 kPa, hot wire | 0.0263 W/m/K
499.6 K, 3614 kPa, transient hot wire | 0.03311 W/m/K
499.6 K, 4853 kPa, transient hot wire | 0.036 W/m/K
499.61 K, 35693 kPa, transient hot wire | 0.05695 W/m/K
499.61 K, 50280 kPa, transient hot wire | 0.06265 W/m/K
499.62 K, 61 kPa, hot wire | 0.02606 W/m/K and 0.02605 W/m/K
499.62 K, 5588 kPa, transient hot wire | 0.03699 W/m/K
499.62 K, 35669 kPa, transient hot wire | 0.057 W/m/K
499.62 K, 35696 kPa, transient hot wire | 0.05672 W/m/K
499.63 K, 643 kPa, hot wire | 0.02745 W/m/K
499.63 K, 3615 kPa, transient hot wire | 0.03333 W/m/K
499.63 K, 4324 kPa, transient hot wire | 0.03525 W/m/K
499.63 K, 5589 kPa, transient hot wire | 0.03717 W/m/K
499.63 K, 35672 kPa, transient hot wire | 0.05682 W/m/K
499.63 K, 50307 kPa, transient hot wire | 0.06251 W/m/K
499.64 K, 644 kPa, hot wire | 0.02725 W/m/K
499.64 K, 1595 kPa, transient hot wire | 0.0274 W/m/K
499.64 K, 3289 kPa, transient hot wire | 0.03215 W/m/K
499.64 K, 4325 kPa, transient hot wire | 0.03518 W/m/K
499.64 K, 50259 kPa, transient hot wire | 0.06245 W/m/K
499.65 K, 419 kPa, hot wire | 0.02725 W/m/K
499.65 K, 1595 kPa, transient hot wire | 0.02712 W/m/K
499.65 K, 2128 kPa, transient hot wire | 0.02826 W/m/K and 0.0282 W/m/K
499.65 K, 4853 kPa, transient hot wire | 0.03633 W/m/K
499.65 K, 4854 kPa, transient hot wire | 0.03629 W/m/K
499.66 K, 418 kPa, hot wire | 0.02719 W/m/K
499.66 K, 3937 kPa, transient hot wire | 0.03435 W/m/K and 0.03413 W/m/K
499.67 K, 2953 kPa, transient hot wire | 0.0308 W/m/K
499.67 K, 35694 kPa, transient hot wire | 0.05685 W/m/K
499.68 K, 50260 kPa, transient hot wire | 0.06229 W/m/K
499.69 K, 218 kPa, hot wire | 0.02623 W/m/K and 0.0264 W/m/K
499.69 K, 5590 kPa, transient hot wire | 0.03719 W/m/K
499.69 K, 35675 kPa, transient hot wire | 0.05669 W/m/K
499.69 K, 35681 kPa, transient hot wire | 0.05715 W/m/K
499.69 K, 50252 kPa, transient hot wire | 0.06264 W/m/K
499.7 K, 60 kPa, hot wire | 0.02639 W/m/K and 0.0261 W/m/K
499.7 K, 2953 kPa, transient hot wire | 0.03112 W/m/K
